In PMC2721768 (Purinergic Signalling, 2008):
Marks after values point to notes of the source that are not given here.

Assays:
[1] = system: ectonucleotidase activity in rat vas deferens tissue; conditions: at 100 μM; cited from earlier work
[2] = biological target: T1, rat NTPDase1 (Rattus norvegicus, UniProt P97687); assay: Inhibition of rat NTPDase1; conditions: for percent inhibition at 1 mM NTPDase1 / inhibition of rat NTPDase1 (in words): rat NTPDase1; for percent inhibition at 1 mM NTPDase1: 1 mM compound, ATP 400 μM; for inhibition at 1000 µM: read-out: percent inhibition at 1 mM NTPDase1
T1 sequence (P97687 1-511): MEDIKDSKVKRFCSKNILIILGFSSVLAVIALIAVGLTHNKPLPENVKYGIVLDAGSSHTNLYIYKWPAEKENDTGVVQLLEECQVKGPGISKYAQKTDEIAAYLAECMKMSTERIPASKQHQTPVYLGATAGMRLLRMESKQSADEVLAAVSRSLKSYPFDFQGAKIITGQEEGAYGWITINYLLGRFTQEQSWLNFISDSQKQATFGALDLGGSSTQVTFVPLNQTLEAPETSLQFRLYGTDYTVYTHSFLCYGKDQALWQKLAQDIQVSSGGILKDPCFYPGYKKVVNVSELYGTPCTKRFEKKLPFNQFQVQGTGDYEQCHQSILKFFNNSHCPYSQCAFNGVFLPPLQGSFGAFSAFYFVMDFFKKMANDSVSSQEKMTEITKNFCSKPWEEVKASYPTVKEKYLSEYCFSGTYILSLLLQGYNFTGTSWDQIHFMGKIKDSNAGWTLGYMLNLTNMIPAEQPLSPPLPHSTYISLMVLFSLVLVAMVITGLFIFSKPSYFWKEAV

[3] = system: P2Y2; conditions: read-out: IC50 P2Y2 antagonist; cited from earlier work
[4] = biological target: T2, rat NTPDase3 (Rattus norvegicus, UniProt A6I415); assay: Inhibition of rat NTPDase3; conditions: for inhibition at 1000 µM: read-out: percent inhibition at 1 mM NTPDase3
T2 sequence (A6I415 1-529): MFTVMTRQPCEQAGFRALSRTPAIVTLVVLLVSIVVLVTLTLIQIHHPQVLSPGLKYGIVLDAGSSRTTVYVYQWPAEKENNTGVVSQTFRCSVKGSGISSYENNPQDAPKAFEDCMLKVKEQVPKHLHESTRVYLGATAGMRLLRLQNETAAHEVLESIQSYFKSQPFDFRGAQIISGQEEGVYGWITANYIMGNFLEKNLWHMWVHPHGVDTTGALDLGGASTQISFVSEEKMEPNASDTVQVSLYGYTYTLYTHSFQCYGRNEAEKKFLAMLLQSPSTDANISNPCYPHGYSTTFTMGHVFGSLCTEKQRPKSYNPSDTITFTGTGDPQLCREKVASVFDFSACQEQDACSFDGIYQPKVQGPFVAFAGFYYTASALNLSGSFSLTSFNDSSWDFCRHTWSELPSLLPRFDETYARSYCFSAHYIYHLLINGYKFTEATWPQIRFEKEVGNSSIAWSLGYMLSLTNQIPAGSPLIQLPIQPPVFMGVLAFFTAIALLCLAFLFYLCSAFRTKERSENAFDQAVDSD

[5] = Solubility and stability under the test conditions; assay type: physicochemical; conditions: 3 mM in HEPES assay buffer (diluted from 10 mM aqueous solution)
[6] = system: NTPDases1, 2, and 3; conditions: rat NTPDase1, 2 and 3
[7] = biological target: T3, rat NTPDase2 (Rattus norvegicus, UniProt O35795); assay: Inhibition of rat NTPDase2; conditions: for inhibition at 1000 µM: read-out: percent inhibition at 1 mM NTPDase2
T3 sequence (O35795 1-495): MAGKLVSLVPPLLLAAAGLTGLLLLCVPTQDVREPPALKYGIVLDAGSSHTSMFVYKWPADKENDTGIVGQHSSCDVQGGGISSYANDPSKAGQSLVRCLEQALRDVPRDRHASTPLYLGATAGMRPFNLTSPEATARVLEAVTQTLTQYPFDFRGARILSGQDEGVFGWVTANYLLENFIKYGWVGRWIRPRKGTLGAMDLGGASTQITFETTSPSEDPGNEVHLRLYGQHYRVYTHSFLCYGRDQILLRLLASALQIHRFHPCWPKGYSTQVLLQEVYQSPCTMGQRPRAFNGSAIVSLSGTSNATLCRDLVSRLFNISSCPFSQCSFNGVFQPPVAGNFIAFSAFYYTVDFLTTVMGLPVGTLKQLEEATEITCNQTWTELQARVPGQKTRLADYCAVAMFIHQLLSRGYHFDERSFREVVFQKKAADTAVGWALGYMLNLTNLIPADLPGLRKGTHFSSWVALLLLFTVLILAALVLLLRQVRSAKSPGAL

[8] = rat NTPDase3, inhibitor 10, 20, and 30 μM

inhibition at 1000 µM [7] [%] | inhibition at 1000 µM [2] [%] | inhibition at 1000 µM [4] [%] | Compound | further results
0 | 0 | 0 | Cc1cc(Nc2ccccc2)c2c(c1N)C(=O)c1ccccc1C2=O [Compound 23, 1-Amino-2-methyl-4-phenylaminoanthraquinone] | –
0 | 0 | 0 | Cc1cccc(Nc2cc(C)c(N)c3c2C(=O)c2ccccc2C3=O)c1 [Compound 24, 1-Amino-2-methyl-4-(3-methylphenylamino)anthraquinone] | –
0 | 0 | 0 | Cc1ccc(Nc2cc(C)c(N)c3c2C(=O)c2ccccc2C3=O)cc1 [Compound 25, 1-Amino-2-methyl-4-(4-methylphenylamino)anthraquinone] | –
0 | 0 | 0 | Cc1cc(Nc2cccc3ccccc23)c2c(c1N)C(=O)c1ccccc1C2=O [Compound 26, 1-Amino-2-methyl-4-(1-naphthylamino)anthraquinone] | –
0 | 0 | 0 | Nc1c(S(=O)(=O)Nc2ccccc2)cc(Br)c2c1C(=O)c1ccccc1C2=O [Compound 31, 1-Amino-4-bromoanthraquinone-2-sulfonic acid phenyl amide] | –

The remaining lines, values behind:

Compound | inhibition at 1000 µM [7] [%] | inhibition at 1000 µM [2] [%] | inhibition at 1000 µM [4] [%] | further results
Nc1c(S(=O)(=O)O)cc(Nc2ccccc2)c2c1C(=O)c1ccccc1C2=O [Compound 11] | – | – | – | inhibition of ATP degradation in rat vas deferens tissue [1]: inactive
Cc1ccccc1Nc1cc(S(=O)(=O)O)c(N)c2c1C(=O)c1ccccc1C2=O [Compound 12] | – | – | – | percent inhibition at 1 mM NTPDase1 [2]: (25%)
Cc1cccc(Nc2cc(S(=O)(=O)O)c(N)c3c2C(=O)c2ccccc2C3=O)c1C [Compound 14] | – | – | – | percent inhibition at 1 mM NTPDase1 [2]: (67%)^b
COc1ccccc1Nc1cc(S(=O)(=O)O)c(N)c2c1C(=O)c1ccccc1C2=O [Compound 16] | – | – | – | IC50 [3]: ~9 µM; inhibition of rat NTPDase1 (in words) [2]: weak; percent inhibition at 1 mM NTPDase1 [2]: (57%)
CCOc1ccccc1Nc1cc(S(=O)(=O)O)c(N)c2c1C(=O)c1ccccc1C2=O [Compound 17] | – | – | – | percent inhibition at 1 mM NTPDase1 [2]: (17%)
Nc1c(S(=O)(=O)O)cc(Nc2ccc(Cl)cc2)c2c1C(=O)c1ccccc1C2=O [Compound 18, 1-Amino-2-sulfo-4-p-chloroanilinoanthraquinone] | – | – | – | Ki [4]: 16.4 ± 1.6 µM; effect on Vmax value of NTPDase3 [4, 8]: not affected; mechanism of inhibition (NTPDase3 kinetics, Lineweaver-Burk plot) [4, 8]: competitive; effect on Km value of NTPDase3 ([4]; rat NTPDase3, with increasing concentration of inhibitor (10, 20, 30 μM)): increased; time until precipitation (in words) [5]: short period of time
CC(=O)Nc1ccc(Nc2cc(S(=O)(=O)O)c(N)c3c2C(=O)c2ccccc2C3=O)cc1 [Compound 19] | – | – | – | IC50 [3]: 6 to 12 µM; NTPDase inhibitory activity (in words) [6]: nearly inactive; percent inhibition at 1 mM NTPDase1 [2]: (15%)
Nc1c(S(=O)(=O)[O-])cc(Nc2cccc3ccccc23)c2c1C(=O)c1ccccc1C2=O.[Na+] [Compound 20, Sodium 1-amino-4-(1-naphthylamino)-9,10-dioxo-9,10-dihydroanthracene 2-sulfonate] | 0 | 0 | – | inhibition of rat NTPDase2 (in words) ([7]; rat NTPDase2): not inhibitory; inhibition of rat NTPDase1 (in words) [2]: not inhibitory
Nc1c(S(=O)(=O)O)cc(Nc2ccc3ccccc3c2)c2c1C(=O)c1ccccc1C2=O [Compound 21, Sodium 1-amino-4-(2-naphthylamino)-9,10-dioxo-9,10-dihydroanthracene 2-sulfonate] | – | – | – | Ki [4]: 2.22 ± 1.03 µM
COc1ccc(CCNc2cc(S(=O)(=O)O)c(N)c3c2C(=O)c2ccccc2C3=O)cc1OC [Compound 22, Sodium 1-amino-4-(3,4-dimethoxyphenethylamino)-9,10-dioxo-9,10-dihydroanthracene 2-sulfonate] | – | – | – | Ki [7]: 54.1 ± 6.8 µM; Ki [4]: 23.4 ± 0.4 µM; Ki [2]: 173 ± 6 µM
COS(=O)(=O)c1cc(Br)c2c(c1N)C(=O)c1ccccc1C2=O [Compound 27, 1-Amino-4-bromoanthraquinone-2-sulfonic acid methyl ester] | 0 | 0 | 0 | –
Nc1c(S(=O)(=O)Oc2ccccc2[N+](=O)[O-])cc(Br)c2c1C(=O)c1ccccc1C2=O [Compound 28, 1-Amino-4-bromoanthraquinone-2-sulfonic acid 2-nitrophenyl ester] | 0 | 0 | 0 | –
Nc1c(S(=O)(=O)Oc2cccc([N+](=O)[O-])c2)cc(Br)c2c1C(=O)c1ccccc1C2=O [Compound 29, 1-Amino-4-bromoanthraquinone-2-sulfonic acid 3-nitrophenyl ester] | 0 | 0 | 0 | –
Nc1c(S(=O)(=O)Oc2ccc([N+](=O)[O-])cc2)cc(Br)c2c1C(=O)c1ccccc1C2=O [Compound 30, 1-Amino-4-bromoanthraquinone-2-sulfonic acid 4-nitrophenyl ester] | 0 | 0 | 0 | –
Nc1c(S(=O)(=O)NCc2ccccc2)cc(Br)c2c1C(=O)c1ccccc1C2=O [Compound 32, 1-Amino-4-bromoanthraquinone-2-sulfonic acid benzylamide] | 0 | 0 | 0 | –
Nc1c(S(=O)(=O)NCCc2ccccc2)cc(Br)c2c1C(=O)c1ccccc1C2=O [Compound 33, 1-Amino-4-bromoanthraquinone-2-sulfonic acid phenethylamide] | 0 | 0 | 0 | –
